# Counter-ions that a name gives are not always drawn.
# Tests used:
# Solubility = assay type: physicochemical
# [1] = Acute toxicity, LD50, Wistar rat; settings: in vivo
# [2] = Acute toxicity, LD50, ICR mouse; settings: in vivo
# striated structure = assay: Pathological examination of striated structure (Experimental Example 1); assay type: in vivo, dog; settings: previously administered, 0.5 mg/kg i.v.
# Procedure: (§1) A dog was anesthetized with 50 mg/kg of sodium pentobarbital and a 2% CaC12 solution was intravenously injected into the femoral vein of the animal at a rate of 1.33 ml/min/10 kg. After 90 min, 0.1 mg, 0.2 mg and 0.3 mg of adrenaline were successively injected thereto intraveneously.
# From a pathological viewpoint, the striated structure of a subject was damaged in the case where no bunazosin hydrochloride was previously administered.
# dog = assay: Adrenaline-induced ventricular tachycardia/fibrillation after CaCl2 infusion in anesthetized dog (Experimental Example 1); assay type: in vivo; settings: 0.5 mg/kg i.v. 12 min before adrenaline, 0.1, 0.2 and 0.3 mg adrenaline successively i.v., 2% CaCl2 infusion
# Procedure: as §1
# [3] = tested on: Creatinie phosphokinase (CPK); assay: Creatine phosphokinase (CPK) after CaCl2, sodium polystyrenesulfonate and adrenaline in anesthetized dog (Experimental Example 2); assay type: in vivo; settings: 0.5 mg/kg previously administered
# Procedure: A dog was anesthetized with 50 mg/kg of sodium pentobarbital and a 0.5% CaCl2 solution was intravenously injected into the femoral vein of the animal at a rate of 1.33 ml/min/10 kg simultaneously with enemiasis of 25 g of sodium polystyrenesulfonate. After 30 min, 0.05 mg/kg of adrenaline was intravenously injected thereto.
smiles,measurement,setting,value
CCCC(=O)N1CCCN(c2nc(N)c3cc(OC)c(OC)cc3n2)CC1 [bunazosin hydrochloride],solubility,Solubility; absolute ethanol,hardly soluble
same,solubility,Solubility; chloroform,almost insoluble
same,solubility,Solubility; formic acid,highly soluble
same,solubility,Solubility; methanol,not readily soluble
same,solubility,Solubility; n-butanol,hardly soluble
same,solubility,Solubility; water,not readily soluble
same,LD50,"[1]; im, female, intramuscular",152 mg/kg
same,LD50,"[1]; im, male, intramuscular",205 mg/kg
same,LD50,"[1]; iv, female",50 mg/kg
same,LD50,"[1]; iv, male",51 to 64 mg/kg
same,LD50,"[1]; po, female",1280 mg/kg
same,LD50,"[1]; sc, female, subcutaneous",365 mg/kg
same,LD50,"[1]; sc, male, subcutaneous",430 mg/kg
same,LD50,"[2]; im, female, intramuscular",598 mg/kg
same,LD50,"[2]; im, male, intramuscular",660 mg/kg
same,LD50,"[2]; iv, female",80 mg/kg
same,LD50,"[2]; iv, male",57 mg/kg
same,LD50,"[2]; po, female",1250 mg/kg
same,LD50,"[2]; po, male",1200 mg/kg
same,LD50,"[2]; sc, female, subcutaneous",630 mg/kg
same,LD50,"[2]; sc, male, subcutaneous",730 mg/kg
same,change of striated structure (pathological viewpoint),striated structure,no change was observed
same,ventricular tachycardia or ventricular fibrillation,dog,none among ten animals
same,"CPK, difference from the control",[3]; 60 min after injection of adrenaline,no significant difference from the control
same,CPK,[3]; determined 60 min after injection of adrenaline (0.05 mg/kg i.v.),85.1±15.6

# — patent US4707477A, “Treating and preventing agent for ischemic cardiac disease and arrhythmia” (priority 1985, dated 1987)
